Test results taken from patent US10046060B2, “Co-administration of an agent linked to an internalization peptide with an anti-inflammatory” (NoNO Inc., priority 2007, dated 2018).
Entries after “also recorded” stand apart in the source; their conditions may differ. Ends that are not written are not given here.

What was measured:
humans [1] = assay: Safety, Tolerability and Pharmacokinetic Study in humans: adverse events; format: in vivo, human
Protocol: (§1) We carried out a Safety, Tolerability and Pharmacokinetic Study of Tat-NR2B9c in humans. Subjects were either normal, healthy, non-smoking males or post-menopausal or surgically sterile female subjects with a minimum age of 18 years. The subjects were either administered Tat-NR2B9c, Lot #: 124-134-001B, or were given placebo (Phosphate Buffered Saline), Lot #: 124-134-001A, administered as an intravenous infusion (10±1 minutes). Four subjects were dosed in each of Cohorts 1 to 3, and 10 subjects were dosed in each of Cohorts 4 to 8. All 62 subjects completed the study. Treatment periods for each cohort were as follows: Cohort 1: Sep. 14, 2006; Cohort 2: Sep. 26, 2006; Cohort 3: Oct. 6, 2006; Cohort 4: Oct. 20, 2006; Cohort 5: Nov. 6, 2006; Cohort 6: Dec. 4, 2006; Cohort 7: Dec. 17, 2006; Cohort 8: Feb. 25, 2007.
The safety assessment was performed on all subjects who received at least 1 dose during the course of the study. The incidents of all adverse events (AEs) were tabulated by treatment and subject number. Absolute values for vital signs, electrocardiogram (ECG) parameters, laboratory parameters and physical examinations were also documented and values outside the nomial range were flagged. Shifts from baseline values were tabulated. AEs were documented using investigator and Medical Dictionary for Regulatory Activities (MedDRA) terms.

humans [2] = assay: Safety, Tolerability and Pharmacokinetic Study in humans: blood histamine; format: in vivo, human; conditions: for Average histamine level of subjects with >10 nmol/L / Maximum histamine level: 3.75 mg/kg
Protocol: as §1
During the study period, 11 blood samples were collected for pharmacokinetic analysis from each subject at the following timepoints: 0.00 (pre-dose), 0.08 (5 minutes), 0.17 to 0.25 (10 to 15 minutes, precisely at the end of each individual drug infusion), 0.33 (20 minutes), 0.50, 0.75, 1.00, 2.00, 6.00, 12.00, and 24.00 hours post-dose. In addition, 8 blood samples were collected for histamine analysis from each subject at the following timepoints: 0.00 (pre-dose), and at 0.08 (5 minutes), 0.17 (10 minutes), 0.25, 0.50, 1.00, 2.00, and 24.00 hours post-dose.

[3] = 10 minutes after start of administration
[4] = 15 minutes after start of administration

YGRKKRRQRRRKLSSIESDV [Tat-NR2B9c]
AEs of the higher doses at the lower dose range (humans [1]; 0.02 to 1.50 mg/kg): minimal or not present | Incidence of AEs vs lower dose groups and placebo (humans [1]; 2.60 and 3.75 mg/kg dose groups): significantly more AEs; also recorded: higher | Serious Adverse Events (humans [1]; all doses): No Serious Adverse Events (SAEs) were reported | Active treatment subjects with at least 1 AE (humans [1]; all doses 0.02-3.75 mg/kg): 73.9% | Doses at which several AEs were frequently reported (humans [1]; decreased blood pressure, paraesthesia, hypoaesthesia, erythema, rash, pruritus, dry mouth, nausea, feeling hot, flushing): ≥ 2.60 mg/kg | Subjects feeling hot (humans [1]; subjects receiving Tat-NR2B9c): 28.3% | Subjects feeling hot (count) (humans [1]; subjects receiving Tat-NR2B9c): 13/46 | Subjects with dry mouth (humans [1]; subjects receiving Tat-NR2B9c): 19.6% | Subjects with dry mouth (count) (humans [1]; subjects receiving Tat-NR2B9c): 9/46 | Subjects with flushing (humans [1]; subjects receiving Tat-NR2B9c): 21.7% | Subjects with flushing (count) (humans [1]; subjects receiving Tat-NR2B9c): 10/46 | Subjects with pruritis (humans [1]; subjects receiving Tat-NR2B9c): 26.1% | Subjects with pruritis (count) (humans [1]; subjects receiving Tat-NR2B9c): 12/46 | Average histamine level of subjects with >10 nmol/L (humans [2]; [3]): 24.3 nmol/L | Maximum histamine level (humans [2]; [3]): 39.8 nmol/L | Average histamine level of subjects with >10 nmol/L (humans [2]; [4]): 15.3 nmol/L | Maximum histamine level (humans [2]; [4]): 20.3 nmol/L | Number of Subjects with Histamine levels >10 nmol/L (humans [2]; NA-1 0.02 mg/kg (n = 2), Day 1, 0.00 hr): 0 | Number of Subjects with Histamine levels >10 nmol/L (humans [2]; NA-1 0.02 mg/kg (n = 2), Day 1, 0.08 hr): 0 | Number of Subjects with Histamine levels >10 nmol/L (humans [2]; NA-1 0.02 mg/kg (n = 2), Day 1, 0.17 hr): 0 | Number of Subjects with Histamine levels >10 nmol/L (humans [2]; NA-1 0.02 mg/kg (n = 2), Day 1, 0.25 hr): 0 | Number of Subjects with Histamine levels >10 nmol/L (humans [2]; NA-1 0.02 mg/kg (n = 2), Day 1, 0.50 hr): 0 | Number of Subjects with Histamine levels >10 nmol/L (humans [2]; NA-1 0.02 mg/kg (n = 2), Day 1, 1.00 hr): 0 | Number of Subjects with Histamine levels >10 nmol/L (humans [2]; NA-1 0.02 mg/kg (n = 2), Day 1, 2.00 hr): 0 | Number of Subjects with Histamine levels >10 nmol/L (humans [2]; NA-1 0.02 mg/kg (n = 2), Day 1, 24.00 hr): 0 | Number of Subjects with Histamine levels >10 nmol/L (humans [2]; NA-1 0.02 mg/kg (n = 2), Day 7): 0 | Number of Subjects with Histamine levels >10 nmol/L (humans [2]; NA-1 0.02 mg/kg (n = 2), Day 14): 0 | Number of Subjects with Histamine levels >10 nmol/L (humans [2]; NA-1 0.02 mg/kg (n = 2), Day 28 End-of-study): 0 | Number of Subjects with Histamine levels >10 nmol/L (humans [2]; NA-1 0.02 mg/kg (n = 2), Screening): 0 | Number of Subjects with Histamine levels >10 nmol/L (humans [2]; NA-1 0.08 mg/kg (n = 2), Day 1, 0.00 hr): 0 | Number of Subjects with Histamine levels >10 nmol/L (humans [2]; NA-1 0.08 mg/kg (n = 2), Day 1, 0.08 hr): 0 | Number of Subjects with Histamine levels >10 nmol/L (humans [2]; NA-1 0.08 mg/kg (n = 2), Day 1, 0.17 hr): 0 | Number of Subjects with Histamine levels >10 nmol/L (humans [2]; NA-1 0.08 mg/kg (n = 2), Day 1, 0.25 hr): 0 | Number of Subjects with Histamine levels >10 nmol/L (humans [2]; NA-1 0.08 mg/kg (n = 2), Day 1, 0.50 hr): 0 | Number of Subjects with Histamine levels >10 nmol/L (humans [2]; NA-1 0.08 mg/kg (n = 2), Day 1, 1.00 hr): 0 | Number of Subjects with Histamine levels >10 nmol/L (humans [2]; NA-1 0.08 mg/kg (n = 2), Day 1, 2.00 hr): 0 | Number of Subjects with Histamine levels >10 nmol/L (humans [2]; NA-1 0.08 mg/kg (n = 2), Day 1, 24.00 hr): 0 | Number of Subjects with Histamine levels >10 nmol/L (humans [2]; NA-1 0.08 mg/kg (n = 2), Day 7): 0 | Number of Subjects with Histamine levels >10 nmol/L (humans [2]; NA-1 0.08 mg/kg (n = 2), Day 14): 0 | Number of Subjects with Histamine levels >10 nmol/L (humans [2]; NA-1 0.08 mg/kg (n = 2), Day 28 End-of-study): 0 | Number of Subjects with Histamine levels >10 nmol/L (humans [2]; NA-1 0.08 mg/kg (n = 2), Screening): 0 | Number of Subjects with Histamine levels >10 nmol/L (humans [2]; NA-1 0.20 mg/kg (n = 2), Day 1, 0.00 hr): 0 | Number of Subjects with Histamine levels >10 nmol/L (humans [2]; NA-1 0.20 mg/kg (n = 2), Day 1, 0.08 hr): 0 | Number of Subjects with Histamine levels >10 nmol/L (humans [2]; NA-1 0.20 mg/kg (n = 2), Day 1, 0.17 hr): 0 | Number of Subjects with Histamine levels >10 nmol/L (humans [2]; NA-1 0.20 mg/kg (n = 2), Day 1, 0.25 hr): 0 | Number of Subjects with Histamine levels >10 nmol/L (humans [2]; NA-1 0.20 mg/kg (n = 2), Day 1, 0.50 hr): 0 | Number of Subjects with Histamine levels >10 nmol/L (humans [2]; NA-1 0.20 mg/kg (n = 2), Day 1, 1.00 hr): 0 | Number of Subjects with Histamine levels >10 nmol/L (humans [2]; NA-1 0.20 mg/kg (n = 2), Day 1, 2.00 hr): 0 | Number of Subjects with Histamine levels >10 nmol/L (humans [2]; NA-1 0.20 mg/kg (n = 2), Day 1, 24.00 hr): 0 | Number of Subjects with Histamine levels >10 nmol/L (humans [2]; NA-1 0.20 mg/kg (n = 2), Day 7): 0 | Number of Subjects with Histamine levels >10 nmol/L (humans [2]; NA-1 0.20 mg/kg (n = 2), Day 14): 0 | Number of Subjects with Histamine levels >10 nmol/L (humans [2]; NA-1 0.20 mg/kg (n = 2), Day 28 End-of-study): 0 | Number of Subjects with Histamine levels >10 nmol/L (humans [2]; NA-1 0.20 mg/kg (n = 2), Screening): 0 | Number of Subjects with Histamine levels >10 nmol/L (humans [2]; NA-1 0.375 mg/kg (n = 8), Day 1, 0.00 hr): 0 | Number of Subjects with Histamine levels >10 nmol/L (humans [2]; NA-1 0.375 mg/kg (n = 8), Day 1, 0.08 hr): 0 | Number of Subjects with Histamine levels >10 nmol/L (humans [2]; NA-1 0.375 mg/kg (n = 8), Day 1, 0.17 hr): 0 | Number of Subjects with Histamine levels >10 nmol/L (humans [2]; NA-1 0.375 mg/kg (n = 8), Day 1, 0.25 hr): 0 | Number of Subjects with Histamine levels >10 nmol/L (humans [2]; NA-1 0.375 mg/kg (n = 8), Day 1, 0.50 hr): 0 | Number of Subjects with Histamine levels >10 nmol/L (humans [2]; NA-1 0.375 mg/kg (n = 8), Day 1, 1.00 hr): 0 | Number of Subjects with Histamine levels >10 nmol/L (humans [2]; NA-1 0.375 mg/kg (n = 8), Day 1, 2.00 hr): 0
